Test results as given in ChEMBL document CHEMBL1201862, “PubChem BioAssay data set” (2004).
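Method: 48-hour compound exposure of cells in 96-well plates, five concentrations, linear interpolation of endpoints. GI50: concentration for 50% inhibition of growth.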 Active and inactive are the calls of the source. Cut-off read from the data, not from the text of the source: active = GI50 up to about 1.1 µM and inactive = higher.

Key:
Experiment in all cases: NCI-60 cell line screen, 48 h
786-0 = tested on: 786-0
A549 = tested on: A549
ACHN = tested on: ACHN
BT-549 = tested on: BT-549
CAKI-1 = tested on: CAKI-1
CCRF-CEM = tested on: CCRF-CEM
COLO 205 = tested on: COLO 205
DU-145 = tested on: DU-145
EKVX = tested on: EKVX
HCC 2998 = tested on: HCC 2998
HCT-116 = tested on: HCT-116
HCT-15 = tested on: HCT-15
HL-60 = tested on: HL-60
HOP-62 = tested on: HOP-62
HOP-92 = tested on: HOP-92
HT-29 = tested on: HT-29
Hs-578T = tested on: Hs-578T
IGROV-1 = tested on: IGROV-1
K562 = tested on: K562
KM12 = tested on: KM12
LOX IMVI = tested on: LOX IMVI
M14 = tested on: M14
MCF7 = tested on: MCF7
MDA-MB-435 = tested on: MDA-MB-435
MDA-N = tested on: MDA-N
MOLT-4 = tested on: MOLT-4
Malme-3M = tested on: Malme-3M
NCI-H226 = tested on: NCI-H226
NCI-H23 = tested on: NCI-H23
NCI-H460 = tested on: NCI-H460
NCI-H522 = tested on: NCI-H522
NCI/ADR-RES = tested on: NCI/ADR-RES
OVCAR-3 = tested on: OVCAR-3
OVCAR-4 = tested on: OVCAR-4
OVCAR-5 = tested on: OVCAR-5
OVCAR-8 = tested on: OVCAR-8
PC-3 = tested on: PC-3
RPMI-8226 = tested on: RPMI-8226
RXF 393 = tested on: RXF 393
SF-268 = tested on: SF-268
SF-295 = tested on: SF-295
SF-539 = tested on: SF-539
SK-MEL-28 = tested on: SK-MEL-28
SK-MEL-2 = tested on: SK-MEL-2
SK-MEL-5 = tested on: SK-MEL-5
SK-OV-3 = tested on: SK-OV-3
SN12C = tested on: SN12C
SNB-19 = tested on: SNB-19
SNB-75 = tested on: SNB-75
SR = tested on: SR
SW-620 = tested on: SW-620
T47D = tested on: T47D
TK-10 = tested on: TK-10
U-251 = tested on: U-251
UACC-257 = tested on: UACC-257
UACC-62 = tested on: UACC-62
UO-31 = tested on: UO-31
A498 = tested on: A498
MDA-MB-231 = tested on: MDA-MB-231

`Cc1ccc(-n2c(=O)c3nn4c(=O)n(-c5ccc(C)cc5)c(=O)c4nn3c2=O)cc1` was tested, and the GI50 (786-0) was > 100 µM (inactive), the GI50 (A549) was > 100 µM (inactive) and the GI50 (ACHN) was > 100 µM (inactive). The GI50 (BT-549) was > 100 µM (inactive), the GI50 (CAKI-1) was > 100 µM (inactive) and the GI50 (CCRF-CEM) was > 100 µM (inactive). For the same molecule, the GI50 (COLO 205) was > 100 µM (inactive), the GI50 (DU-145) was > 100 µM (inactive) and the GI50 (EKVX) was > 100 µM (inactive). The GI50 (HCC 2998) was > 100 µM (inactive), the GI50 (HCT-116) was > 100 µM (inactive) and the GI50 (HCT-15) was > 100 µM. For the same molecule, the GI50 (HL-60) was > 100 µM (inactive), the GI50 (HOP-62) was > 100 µM (inactive) and the GI50 (HOP-92) was 45.6 µM (inactive). For the same molecule, the GI50 (HT-29) was > 100 µM (inactive), the GI50 (Hs-578T) was > 100 µM (inactive) and the GI50 (IGROV-1) was > 100 µM (inactive). The GI50 (K562) was > 100 µM (inactive), the GI50 (KM12) was > 100 µM (inactive) and the GI50 (LOX IMVI) was > 100 µM (inactive). For the same molecule, the GI50 (M14) was > 100 µM (inactive), the GI50 (MCF7) was > 100 µM (inactive) and the GI50 (MDA-MB-435) was > 100 µM (inactive). For the same molecule, the GI50 (MDA-N) was > 100 µM (inactive), the GI50 (MOLT-4) was > 100 µM (inactive) and the GI50 (Malme-3M) was > 100 µM (inactive). The GI50 (NCI-H226) was > 100 µM (inactive), the GI50 (NCI-H23) was > 100 µM (inactive) and the GI50 (NCI-H460) was > 100 µM (inactive). For the same molecule, the GI50 (NCI-H522) was > 100 µM (inactive), the GI50 (NCI/ADR-RES) was > 100 µM (inactive) and the GI50 (OVCAR-3) was > 100 µM (inactive). For the same molecule, the GI50 (OVCAR-4) was > 100 µM (inactive), the GI50 (OVCAR-5) was > 100 µM (inactive) and the GI50 (OVCAR-8) was > 100 µM (inactive). For the same molecule, the GI50 (PC-3) was > 100 µM (inactive), the GI50 (RPMI-8226) was > 100 µM (inactive) and the GI50 (RXF 393) was > 100 µM (inactive). The GI50 (SF-268) was > 100 µM (inactive), the GI50 (SF-295) was > 100 µM (inactive) and the GI50 (SF-539) was > 100 µM (inactive). For the same molecule, the GI50 (SK-MEL-28) was > 100 µM (inactive), the GI50 (SK-MEL-2) was > 100 µM (inactive) and the GI50 (SK-MEL-5) was > 100 µM (inactive). The GI50 (SK-OV-3) was > 100 µM (inactive), the GI50 (SN12C) was > 100 µM (inactive) and the GI50 (SNB-19) was > 100 µM (inactive). The GI50 (SNB-75) was 58.3 µM (inactive), the GI50 (SR) was > 100 µM (inactive) and the GI50 (SW-620) was > 100 µM (inactive). For the same molecule, the GI50 (T47D) was > 100 µM (inactive), the GI50 (TK-10) was > 100 µM (inactive) and the GI50 (U-251) was > 100 µM (inactive). For the same molecule, the GI50 (UACC-257) was > 100 µM (inactive), the GI50 (UACC-62) was > 100 µM (inactive) and the GI50 (UO-31) was > 100 µM (inactive).
`Clc1cc(-c2ccccc2)nc(Nc2nc3ccccc3[nH]2)n1` was tested, and the GI50 (786-0) was 16.5 µM (inactive), the GI50 (A498) was 33.3 µM (inactive) and the GI50 (A549) was > 100 µM (inactive). The GI50 (ACHN) was 17.5 µM (inactive), the GI50 (BT-549) was 22.9 µM (inactive) and the GI50 (CAKI-1) was 2.14 µM (inactive). The GI50 (CCRF-CEM) was 6.08 µM (inactive), the GI50 (COLO 205) was 13.8 µM (inactive) and the GI50 (DU-145) was > 100 µM (inactive). For the same molecule, the GI50 (EKVX) was 24 µM (inactive), the GI50 (HCT-116) was 25.1 µM (inactive) and the GI50 (HCT-15) was 6.95 µM. The GI50 (HL-60) was 0.832 µM (active), the GI50 (HOP-92) was 2.2 µM (inactive) and the GI50 (HT-29) was 15 µM (inactive). The GI50 (Hs-578T) was 27.3 µM (inactive), the GI50 (IGROV-1) was 14.7 µM (inactive) and the GI50 (K562) was 4.05 µM (inactive). The GI50 (KM12) was 40.2 µM (inactive), the GI50 (M14) was 23.7 µM (inactive) and the GI50 (MDA-MB-231) was 15 µM (inactive). For the same molecule, the GI50 (MDA-MB-435) was 23.3 µM (inactive), the GI50 (MDA-N) was 18.8 µM (inactive) and the GI50 (MOLT-4) was 22.3 µM (inactive). For the same molecule, the GI50 (Malme-3M) was 28.2 µM (inactive), the GI50 (NCI-H226) was 55.5 µM (inactive) and the GI50 (NCI-H23) was 18.2 µM (inactive). The GI50 (NCI-H460) was 19 µM (inactive), the GI50 (NCI-H522) was 11.4 µM (inactive) and the GI50 (NCI/ADR-RES) was 43.5 µM (inactive). The GI50 (OVCAR-4) was 15.9 µM (inactive), the GI50 (OVCAR-5) was > 100 µM (inactive) and the GI50 (OVCAR-8) was 22 µM (inactive). The GI50 (PC-3) was 44.7 µM (inactive), the GI50 (RPMI-8226) was > 100 µM (inactive) and the GI50 (RXF 393) was 4.27 µM (inactive). The GI50 (SF-268) was 23.6 µM (inactive), the GI50 (SF-295) was 37.1 µM (inactive) and the GI50 (SF-539) was > 100 µM (inactive). The GI50 (SK-MEL-2) was > 10 µM (inactive), the GI50 (SK-MEL-5) was 38.5 µM (inactive) and the GI50 (SK-OV-3) was 64.7 µM (inactive). The GI50 (SN12C) was 28.2 µM (inactive), the GI50 (SNB-19) was 83 µM (inactive) and the GI50 (SNB-75) was 34.4 µM (inactive). For the same molecule, the GI50 (SR) was 2.84 µM (inactive), the GI50 (SW-620) was 6.01 µM (inactive) and the GI50 (T47D) was > 100 µM (inactive). For the same molecule, the GI50 (TK-10) was > 100 µM (inactive), the GI50 (U-251) was 15.3 µM (inactive) and the GI50 (UACC-257) was 20.6 µM (inactive). For the same molecule, the GI50 (UACC-62) was 17.7 µM (inactive) and the GI50 (UO-31) was 55 µM (inactive).
